Measurements published in patent US9932630B2, “Method and system for decontaminating materials” (RASIRC, Inc., priority 2014, dated 2018).

Tests used:
[1] = test system: bovine genomic DNA
Text: (§1) FIG. 4 schematic illustrates the apparatus used in this experiment. Equipment included: a purified clean dry air (CDA) gas supply; a pressurized deionized (DI) water supply; a pressure regulator with gauge, a Filterite MPTE-010-1/4CS 0.01 micron gas filter; 3 mass flow controllers (MFCs); an MFC control box; a Stable Gaseous Delivery (SGD) System (i.e., “Concentrator” in the diagram) and a relative humidity system (RHS) (RASIRC, San Diego, Calif.). Membranes using a fluorinated ion-exchange polymer prepared as an ammonium salt were utilized.
Operation of the decontamination apparatus can be understood with reference to FIG. 4. The CDA gas pressure was maintained at 25 psig with the pressure regulator. A 0.01 micron filter removed particulates from the gas stream. The MFCs controlled the flow of the carrier gas streams and the dilution gas stream. […]
A PCR plate to be used for quantifying amplifiable DNA was prepared with three replicates at each target input level (i.e., ranging from 0 ng to 1,000 ng). In each instance, measured aliquots of an aqueous solution of bovine genomic DNA were added to individual wells of the plate, and then dried. […] Amplification reactions were carried out using procedures familiar to those of ordinary skill in the art, and the appearance of fluorescent signals monitored as a function of time in a real-time format.

[2] = test system: E. coli; conditions: 25° C.
Text: as §1
Operation of the decontamination apparatus can be understood with reference to FIG. 4. The CDA gas pressure was maintained at 25 psig with the pressure regulator. A 0.01 micron filter removed particulates from the gas stream. The MFCs controlled the flow of the carrier gas streams and the dilution gas stream. The RHS was used to add water gas to the gas stream. […] The water temperature was used to control the output of the humidifier. The valves (V-1, V-2, and V-3) were used to send either the dry CDA gas stream, the RHS gas stream, and/or SGD gas stream through the furnace or out to vent. TC-1 will be used to measure the temperature of the dry CDA gas stream. TC-2 will be used to measure gas temperature downstream of the RHS. TC-3 and TC-4 were used to measure the gas temperature downstream of the SGD. […]

[3] = test system: bacterial samples; conditions: visible mist or fog present, droplets condensed onto the sample

Structure (SMILES): OO [Hydrogen Peroxide Gas, hydrogen peroxide]
- reduction of amplifiable DNA ([1]; sample containing the greatest amount of starting material): about 4 logs
- amplifiable DNA after treatment ([1]; sample containing the lowest amount of starting material): completely undetectable
- Growth on tryptic soy agar plates after H202 treatment ([2]; E. coli 1.7×10^7 cfu per spot, gas-phase H2O2 at 505 ppm and H2O at 2122 ppm for 60 minutes): No Growth
- number of viable bacteria after exposure ([2]; E. coli, gas-phase H2O2 505 ppm, 60 minutes): undetectable level
- reduction of the number of viable organisms [3]: did not significantly reduce
